Consider 15 substances from paper PMC10611374, “Characterization of the Hemolytic Activity of Mastoparan Family Peptides from Wasp Venoms” (Toxins, 2023).

For assay [1], the system named is human red blood cells (HRBCs). Kind of assay: Hemolytic assay on human red blood cells. The assay is classed as cell-based. To be noted: human red blood cells 5% (v/v) in PBS, 37 °C 1 h, OD 540 nm; for EC50: four-parameter logistic fit of mean of three independent experiments, '-' = hemolytic activity too low to calculate the EC50; for HRBC Hemolysis (hemolysis rate at 320 μg/mL): peptide 320 μg/mL (highest dose), PBS = 0%, mean of three independent experiments. As to the method:
(§1) Fresh human red blood cells were obtained from healthy donors and collected in a sterile blood collecting vessel covered with sodium citrate (1:9) as the anticoagulating agent. Rat red blood cells were collected from the abdominal aorta in sterile blood-collecting vessels coated with sodium citrate (1:4) after the SD rats were anaesthetized with isoflurane. Then, the cells were washed three times with phosphate-buffered saline via centrifugation (1000× g, 4 °C, 5 min) and prepared in a sterile 96-well polypropylene plate to achieve a final concentration of 5% (v/v). Twofold dilutions of the peptides were prepared in PBS to 100 μL and mixed with an equal volume of HRBCs/RRBCs suspension to final peptide concentrations ranging from 10 to 320 μg/mL. After coincubation at 37 °C for 1 h, the plate was centrifuged (2000× g, 4 °C, 20 min), and 100 μL of supernatant was taken for optical density measurements at 540 nm using a microtiter plate reader (SpectraMax 190). The HRBCs/RRBCs were assayed with PBS (blank) or 1% Triton X-100 (positive control) to represent 0% and 100% hemolysis, respectively. The percent hemolysis was calculated according to the following equation: Hemolysis Rate (%) = 100% × (Amastoparans − Ablank)/(ATriton X-100 − Ablank). Three independent experiments were performed, and the mean hemolysis rate at each dose was used to calculate the EC50 in Sigmaplot software.
(§2) Statistical analysis was performed with GraphPad Prism software (version 5.0, San Diego, CA, USA). A two-tailed Student’s t-test was used to calculate the statistical probability in this study. Differences in the data were considered to be statistically significant when the p value was equal to or less than 0.05. The curve of hemolysis induced by wasp mastoparans was generated in SigmaPlot 12.5 software, and the EC50 was calculated according to the equation (Four Parameter Logistic Curve): y = min + (max − min)/(1 + (x/EC50)^−Hillslope). The heat map of hemolytic activity of mastoparan peptide was analysed in R software which is based on the value of log2(EC50).

The test system of assay [2] is rat red blood cells (RRBCs). Kind of assay: Hemolytic assay on rat red blood cells. The assay is classed as cell-based, SD rats. To be noted: rat red blood cells 5% (v/v) in PBS, 37 °C 1 h, OD 540 nm; for EC50: four-parameter logistic fit of mean of three independent experiments, '-' = hemolytic activity too low to calculate the EC50; for RRBC Hemolysis (hemolysis rate at 320 μg/mL): peptide 320 μg/mL (highest dose), PBS = 0%, mean of three independent experiments. As to the method: as §1, §2

Where [3] appears, read: Table 2 series, read-out: HRBC EC50 (hemolytic activity), Protopolybia-MPIII and mutants.
Where [4] appears, read: Table 2 series, read-out: RRBC EC50 (hemolytic activity), Protopolybia-MPIII and mutants.
Where [5] appears, read: peptide 10-320 μg/mL twofold dilutions, 1% Triton X-100 = 100%, read-out: RRBC EC50 (hemolytic activity).
[6] abbreviates: peptide 10-320 μg/mL twofold dilutions, 1% Triton X-100 = 100%, read-out: HRBC EC50 (hemolytic activity).

Read-outs that look alike come from different tables or passages of the source. Ends that are not written are not given here.

For the substance “INWLKLGKAVSDIL-NH2 [Protopolybia-MPIII-9]”, the EC50 is 167 ± 2.7 µM in assay [1] (setting [3]) and 161.7 ± 1.3 µM in assay [2] (setting [4]).
Consider IKWKAILDAVKKVL-NH2 [Mastoparan-A], for which, in assay [1] (1% Triton X-100 = 100%), the “HRBC Hemolysis (hemolysis rate at 320 μg/mL)” value (“HRBC Hemolysis” below) was 7%. Moreover, in assay [2] (1% Triton X-100 = 100%), the “RRBC Hemolysis (hemolysis rate at 320 μg/mL)” value (“RRBC Hemolysis” for short) turned out to be 56%. Besides, in assay [2] (setting [5]), the EC50 is 183 ± 3.4 µM.
As for INWLKLGKMVIDAL-NH2 [Polybia-MP II], in assay [1] (1% Triton X-100 = 100%), the “HRBC Hemolysis” value came to 91%. In addition, the EC50 in assay [1] (peptide 10-320 μg/mL twofold dilutions, 1% Triton X-100 = 100%, listed as Polybia-MPII, read-out: HRBC EC50 (hemolytic activity)) was ≤ 400 µM; in assay [1] (setting [6]), 23.3 ± 1.4 µM; in assay [2] (setting [5]), 29.1 ± 1.5 µM. Further, the “RRBC Hemolysis” value in assay [2] (1% Triton X-100 = 100%) turned out to be 100%.
INWLKLGKKMMSAL-NH2 [MP]: in assay [1] (1% Triton X-100 = 100%), the “HRBC Hemolysis” value was 87%. Further, the EC50 in assay [1] (setting [6]) is 124 ± 15.3 µM. For the same substance, the “RRBC Hemolysis” value in assay [2] (1% Triton X-100 = 100%) is on record as 10%.
Turning to INWKALLDAAKKVL-NH2 [Protonectarina-MP], in assay [1] (1% Triton X-100 = 100%), the “HRBC Hemolysis” value was 100%. In addition, the “RRBC Hemolysis” value in assay [2] (1% Triton X-100 = 100%) turned out to be 35%. The concentration giving a half-maximal response (EC50) in assay [2] (setting [5]) was 326 ± 26.4 µM.
In the case of “INWLKLGKAVIDIL-NH2 [Protopolybia-MPIII-4]”, the EC50 in assay [1] (setting [3]) was 11.3 ± 6.2 µM; in assay [2] (setting [4]), 19.8 ± 1.2 µM.
As to INWKKIFQKVKNLV-NH2 [PDD-A], the “HRBC Hemolysis” value in assay [1] (1% Triton X-100 = 100%) worked out at 30%. Moreover, the 50% effective concentration (EC50) in assay [1] (setting [6]) was 354 ± 44.8 µM. For the same substance, in assay [2] (1% Triton X-100 = 100%), the “RRBC Hemolysis” value was 27%.
As for “INWLKLGKAVIAAL-NH2 [Protopolybia-MPIII-3]”, the figures for the EC50 in assay [1] (setting [3]) and in assay [2] (setting [4]) were 16.8 ± 1 µM and 21.5 ± 1.2 µM, respectively.
In the case of INWAKLGKLALQAL-NH2 [Ropalidia-MP], in assay [1] (1% Triton X-100 = 100%), the “HRBC Hemolysis” value was found to be 100%. Besides, the EC50 in assay [1] (setting [6]) was 42.5 ± 1.7 µM; in assay [2] (setting [5]), 122 ± 4.3 µM. The “RRBC Hemolysis” value in assay [2] (1% Triton X-100 = 100%) came out at 94%.
Regarding IDWKKLLDAAKQIL-NH2 [Polybia-MP I], in assay [1] (1% Triton X-100 = 100%), the “HRBC Hemolysis” value is reported as 56%. In addition, the EC50 was ≤ 400 µM in assay [1] (peptide 10-320 μg/mL twofold dilutions, 1% Triton X-100 = 100%, listed as Polybia-MPI, read-out: HRBC EC50 (hemolytic activity)); 177 ± 7 µM in assay [1] (setting [6]); 51.4 ± 2.2 µM in assay [2] (setting [5]). Besides, in assay [2] (1% Triton X-100 = 100%), the “RRBC Hemolysis” value stood at 100%.
“INWLKLGKAVSDAL-NH2 [Protopolybia-MPIII-2]”: the EC50 in assay [1] (setting [3]) is 673 ± 189 µM; in assay [2] (setting [4]), 639.5 ± 1.6 µM.
As for INLKALLAVAKKIL-NH2 [Mastoparan-C], the “HRBC Hemolysis” value in assay [1] (1% Triton X-100 = 100%) came to 100%. Further, the “RRBC Hemolysis” value in assay [2] (1% Triton X-100 = 100%) is 100%. Besides, the EC50 in assay [2] (setting [5]) is 64.4 ± 10.7 µM.
With “INWLKLGKKVIDAL-NH2 [Protopolybia-MPIII-1]”, the EC50 in assay [1] (setting [3]) was 176.4 ± 1 µM; in assay [2] (setting [4]) it was 158 ± 2.3 µM.
Take IDWLKLGKMVMDVL-NH2 [Polybia-MP III]: the “HRBC Hemolysis” value in assay [1] (1% Triton X-100 = 100%) amounted to 79%. For the same substance, the EC50 is 38.5 ± 5.9 µM in assay [1] (setting [6]) and 74.8 ± 10.4 µM in assay [2] (setting [5]). For the same substance, the “RRBC Hemolysis” value in assay [2] (1% Triton X-100 = 100%) was 100%.
As for VDWKKIGQHILSVL-NH2 [Mastoparan-J], the “HRBC Hemolysis” value in assay [1] (1% Triton X-100 = 100%) amounted to 100%. In addition, the results for the 50% effective concentration (EC50) in assay [1] (setting [6]) and in assay [2] (setting [5]) were 69.5 ± 3.2 µM and 60.1 ± 1.3 µM, respectively. Also, the “RRBC Hemolysis” value in assay [2] (1% Triton X-100 = 100%) came to 100%.

Broadly, the EC50 is the midpoint of the concentration-response curve.
